According to US6869956B2, “Methods of treating inflammatory and immune diseases using inhibitors of IκB kinase (IKK)” (Bristol-Myers Squibb Company, priority 2000, dated 2005):
pIC50: −log10 of the molar value. Where a name gives a salt, the structure may show the parent alone.

What was measured:
[1] = target: T1, recombinantly expressed IKK-1 (Homo sapiens, UniProt O15111); assay: IKK-1 enzyme assay (33P-ATP / IκB-α phosphorylation); format: biochemical; conditions: 33P-labeled ATP and IκB-α as substrates
T1 construct: made in house
T1 sequence (O15111 1-745): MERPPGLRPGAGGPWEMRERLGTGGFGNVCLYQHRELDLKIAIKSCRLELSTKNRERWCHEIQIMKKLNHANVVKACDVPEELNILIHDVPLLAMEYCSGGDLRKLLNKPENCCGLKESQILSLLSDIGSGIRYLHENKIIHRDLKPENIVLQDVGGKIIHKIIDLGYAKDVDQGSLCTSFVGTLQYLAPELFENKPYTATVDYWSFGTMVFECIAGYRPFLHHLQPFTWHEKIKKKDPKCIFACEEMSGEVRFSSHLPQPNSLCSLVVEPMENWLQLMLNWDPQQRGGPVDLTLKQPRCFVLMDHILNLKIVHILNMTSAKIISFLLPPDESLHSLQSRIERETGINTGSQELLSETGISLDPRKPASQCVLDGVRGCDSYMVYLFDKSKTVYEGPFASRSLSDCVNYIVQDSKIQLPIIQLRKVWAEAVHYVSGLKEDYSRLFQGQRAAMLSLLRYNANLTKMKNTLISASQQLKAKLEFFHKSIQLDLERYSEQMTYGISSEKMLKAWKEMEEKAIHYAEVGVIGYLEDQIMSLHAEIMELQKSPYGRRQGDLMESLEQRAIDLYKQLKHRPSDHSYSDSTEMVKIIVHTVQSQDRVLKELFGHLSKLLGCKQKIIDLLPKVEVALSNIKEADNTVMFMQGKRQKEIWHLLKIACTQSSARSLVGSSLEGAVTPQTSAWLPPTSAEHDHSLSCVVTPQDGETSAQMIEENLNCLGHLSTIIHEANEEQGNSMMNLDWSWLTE
Method: In this assay, test compound was added to a solution of 0.5 mM IκB-α in 40 mM Tris-HCl, pH 8, containing 4 mM MgCl2, 1 mM dithiothreitol, and 2 mM ^33P-labeled ATP. IKK enzyme (either the multisubunit complex from HeLa cells, recombinantly expressed IKK-1, or recombinantly expressed IKK-2) was then added to initiate the reaction. The multisubunit complex was isolated according to the procedure of Lee et al. [(1997) Cell 88:213-222] or Mercurio et al. [(1997) 278:860-866]. The recombinant IKK-1 and IKK-2 were expressed using the procedure of Burke et al. [(1999) J. Biol. Chem. 274:36146-36152]. After incubating for 10 minutes at 30° C., the reaction was quenched by the addition of EDTA to a final concentration of 30 mM. In order to separate the phosphorylated IκB-α (Santa Cruz Biotechnology; Santa Cruz, Calif.) product from unreacted ATP, sodium dodecylsulfate polyacrylamide gel electrophoresis (SDS-PAGE) was performed. Phosphoimager analysis of the amount of ^33P incorporation into IκB-α was executed using a Molecular Dynamics 445 Phosphoimager, and the inhibition of IKK activity by the test compound was calculated from control samples containing no inhibitor.

Structure (SMILES) | melting point | pIC50 [1]
Cc1cnc2c(NCCN3CCCCC3)nc3cc4ccccc4cc3n12 [Example 19, 1-methyl-4-(2-piperidin-1-yl-ethylamino)benzo[g]imidazo[1,2-a]quinoxaline] | 170 to 172 °C | 5.77
CNc1nc2cc3ccccc3cc2c2c(C)cnn12 [Example 14, 1-methyl-4-methylaminobenzo[g]pyrazolo[1,5-c]quinazoline] | – | 6.17
CNc1nc2cc3ccccc3cc2n2c(C)cnc12 [Example 12, 1-methyl-4-methylaminobenzo[g]imidazo[1,2-a]quinoxaline] | 201 to 202 °C | 6.64
CNCCNc1nc2cc3ccccc3cc2n2c(C)cnc12 (as salt: hydrochloride) [Example 13, 1-methyl-4-(2-N-methylaminoethylamino)benzo[g]imidazo[1,2-a]quinoxaline Hydrochloride] | 265 to 275 °C (dec.) | –
CNc1nc2cc3ccccc3cc2c2c1ncn2C [Example 16, 1-methyl-4-methylaminobenzo(g)imidazo(4,5-c)quinoline] | – | 6.10
CNCCNc1nc2cc3ccccc3cc2n2c(C)cnc12 [Example 13, 1-methyl-4-(2-N-methylaminoethylamino)benzo[g]imidazo[1,2-a]quinoxaline Hydrochloride] | – | 6.46
Cn1cnc2c(NCCN)nc3cc4ccccc4cc3c21 [Example 17] | – | 6.00
Cc1cnc2c(NCCO)nc3cc4ccccc4cc3n12 [Example 18, 1-methyl-4-(2-hydroxyethylamino)benzo[g]imidazo[1,2-a]quinoxaline] | 186 to 188 °C | –
